The results in this text go back to patent US6335339B1, “Triazine antiviral compounds” (Scriptgen Pharmaceuticals, Inc., priority 1998, dated 2002).

The subject of assay [1] is HBV εRNA. Kind of assay: εRNA/oligonucleotide hybridization inhibition assay with rRNA competitor. It is filed as binding, Hepatitis B virus. To be noted: for pIC50: radiolabeled εRNA, 60-fold excess rRNA competitor; for Specificity: ratio RRE+rRNA IC50/εRNA+rRNA IC50, max = inactive in RRE assay. In outline: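 Inhibition of hybridization between 25 nM [32P]-εRNA and 100 nM biotinylated complementary oligonucleotide (50 mM Tris-HCl pH 7.5, 200 mM KCl, 5 mM MgCl2, 60 min, 25 °C), hybrids captured by streptavidin filter and counted. Titrations 0.1-200 μM with 60-fold excess rRNA; specificity = RRE+rRNA IC50/εRNA+rRNA IC50.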

Assay [2] concerns HIV derived RRE RNA. Description: heterologous hybridization inhibition assay with RRE RNA. Format: binding. To be noted: radiolabeled RRE RNA, rRNA competitor.

pIC50: −log10 of the molar value.

Regarding `CCCCN(CCCC)c1nc(NN=Cc2ccc(OCC)c(O)c2)nc(Nc2ccc([N+](=O)[O-])cc2)n1` [Compound 23], in assay [1], the pIC50 is 5.24 and the Specificity result was “max”. Besides, the “RRE + rRNA IC50 (μM)” value in assay [2] was “inactive”.

As to `O=[N+]([O-])c1ccc(Nc2nc(NCc3ccccc3)nc(NN=Cc3ccccc3)n2)cc1` [Compound 24], in assay [1], the pIC50 was 5.00 and the Specificity result is listed as “max”. Moreover, the “RRE + rRNA IC50 (μM)” value in assay [2] is “inactive”.

In the case of `Cc1ccc(Nc2nc(NN=Cc3ccccc3)nc(Nc3ccccc3)n2)cc1` [Compound 25], in assay [1], the pIC50 was 4.92 and the Specificity result was “max”. The “RRE + rRNA IC50 (μM)” value in assay [2] was “inactive”.

With `CCN(CC)CCNc1ccc2c3c(cccc13)C(=O)N(Nc1nc(NCc3ccccc3)nc(N(CC)CC)n1)C2=O` [Compound 27], in assay [1], the pIC50 is 4.81 and the Specificity result is “max”. In assay [2], the “RRE + rRNA IC50 (μM)” value is “inactive”.

As for `COc1ccc(Br)cc1/C=N/Nc1nc(Nc2cccc([N+](=O)[O-])c2)nc(N2CCOCC2)n1` [Compound 28], in assay [1], the pIC50 is 4.72 and the Specificity entry is listed as “max”. In assay [2], the “RRE + rRNA IC50 (μM)” value was “inactive”.

Regarding `Cc1ccccc1Nc1nc(NN=Cc2ccc3c(c2)OCO3)nc(Nc2ccc([N+](=O)[O-])cc2)n1` [Compound 29], in assay [1], the pIC50 is 4.61 and the Specificity result is recorded as “max”. Moreover, the “RRE + rRNA IC50 (μM)” value in assay [2] is “inactive”.

In the case of `Cc1ccc(Nc2nc(NN=Cc3cccc(I)c3)nc(Nc3ccccc3)n2)cc1` [Compound 30], in assay [1], the pIC50 is 4.60 and the Specificity entry was “max”. Further, in assay [2], the “RRE + rRNA IC50 (μM)” value was “inactive”.

Take `Oc1ccc(I)cc1C=NNc1nc(NCc2ccccc2)nc(Nc2ccccc2)n1` [Compound 33]: in assay [1], the pIC50 is 4.43 and the Specificity result is given as “max”. In addition, the “RRE + rRNA IC50 (μM)” value in assay [2] was “inactive”.

Regarding `Oc1c(Br)cc(Cl)cc1/C=N/Nc1nc(Nc2cccc(C(F)(F)F)c2)nc(N2CCOCC2)n1` [Compound 34], in assay [1], the pIC50 was 4.68 and the Specificity result is listed as “max”. In addition, the “RRE + rRNA IC50 (μM)” value in assay [2] was “inactive”.

Regarding `CCCCN(CCCC)c1nc(NN=Cc2cccc(Cl)c2)nc(Nc2ccc([N+](=O)[O-])cc2)n1` [Compound 35], in assay [1], the pIC50 is 4.60 and the Specificity entry is “max”. For the same compound, in assay [2], the “RRE + rRNA IC50 (μM)” value was “inactive”.

For the compound `Cc1ccc(Nc2nc(NN=Cc3ccc(I)cc3)nc(Nc3ccccc3)n2)c(C)c1` [Compound 113], the pIC50 is 4.48 in assay [1] and 3.52 in assay [2]. Moreover, in assay [1], the Specificity came out at 9.1.

As for `O=[N+]([O-])c1ccc(Nc2nc(NN=Cc3ccc(Br)cc3)nc(N3CCCCCC3)n2)cc1` [Compound 117], in assay [1], the pIC50 is 4.81 and the Specificity entry is recorded as “max”. Also, the “RRE + rRNA IC50 (μM)” value in assay [2] is “inactive”.

On to `FC(F)(F)c1cccc(Nc2nc(NN=Cc3ccc(Cl)cc3)nc(N3CCOCC3)n2)c1` [Compound 120], for which the pIC50 in assay [1] was 4.34; in assay [2] it was 2.96. Besides, in assay [1], the Specificity is 24.1.

With `C(=Cc1ccccc1)C=NNc1nc(Nc2ccccc2)nc(Nc2ccccc2)n1` [Compound 125], in assay [1], the pIC50 was 4.45 and the Specificity came out at 28.5. In assay [2], the pIC50 was 3.00.

`CCN(CC)c1nc(NCc2ccccc2)nc(N/N=C/c2ccccc2O)n1` [Compound 155, 2-hydroxybenzaldehyde N-[4-(benzylamino)-6-(diethylamino)-1,3,5-triazin-2-yl]hydrazone]: in assay [1], the pIC50 was 4.59 and the Specificity entry is recorded as “max”. Also, the “RRE + rRNA IC50 (μM)” value in assay [2] was “inactive”.

Consider `COc1ccc(Nc2nc(NN=Cc3ccc(O)cc3O)nc(Nc3ccccc3)n2)cc1` [Compound 158], for which, in assay [1], the pIC50 was 5.13 and the Specificity result is on record as “max”. In assay [2], the “RRE + rRNA IC50 (μM)” value is “inactive”.

As to `Cc1ccc(Nc2nc(NN=Cc3cc(I)ccc3O)nc(Nc3ccccc3)n2)c(C)c1` [Compound 159], in assay [1], the pIC50 is 5.57 and the Specificity result is listed as “max”. Moreover, the “RRE + rRNA IC50 (μM)” value in assay [2] is “inactive”.

Regarding `Oc1ccc(Cl)cc1C=NNc1nc(Nc2ccc3ccccc3c2)nc(N2CCOCC2)n1` [Compound 160], in assay [1], the pIC50 is 5.02 and the Specificity stood at 44.2. Moreover, the pIC50 in assay [2] was 3.38.

For the compound `COc1c(C=NNc2nc(NCc3ccccc3)nc(Nc3ccccc3)n2)cccc1[N+](=O)[O-]` [Compound 162], in assay [1], the pIC50 was 4.93 and the Specificity entry is on record as “max”. Besides, in assay [2], the “RRE + rRNA IC50 (μM)” value is “inactive”.

With `Brc1cccc(C=NNc2nc(Nc3ccccc3)nc(N3CCOCC3)n2)c1` [Compound 163], in assay [1], the pIC50 is 4.00 and the Specificity result is listed as “max”. For the same compound, the “RRE + rRNA IC50 (μM)” value in assay [2] is “inactive”.

Take `COc1ccc(Nc2nc(NN=Cc3ccc(O)cc3O)nc(N3CCOCC3)n2)cc1` [Compound 164]: in assay [1], the pIC50 was 4.32 and the Specificity entry is listed as “max”. The “RRE + rRNA IC50 (μM)” value in assay [2] was “inactive”.

Turning to `COc1ccc(C=NNc2nc(NCc3ccccc3)nc(Nc3ccccc3)n2)cc1` [Compound 165], in assay [1], the pIC50 is 4.73 and the Specificity entry is on record as “max”. Besides, the “RRE + rRNA IC50 (μM)” value in assay [2] is “inactive”.

Consider `Ic1cccc(C=NNc2nc(Nc3ccc4ccccc4c3)nc(N3CCOCC3)n2)c1` [Compound 166], for which, in assay [1], the pIC50 was 4.44 and the Specificity entry is “max”. In addition, the “RRE + rRNA IC50 (μM)” value in assay [2] was “inactive”.

In the case of `Oc1ccc2ccccc2c1C=NNc1nc(Nc2cccc3ccccc23)nc(N2CCOCC2)n1` [Compound 167], in assay [1], the pIC50 was 4.29 and the Specificity entry is “max”. The “RRE + rRNA IC50 (μM)” value in assay [2] was “inactive”.

With `COc1c(C=NNc2nc(Nc3ccccc3)nc(Nc3ccccc3)n2)ccc(Br)c1O` [Compound 168], in assay [1], the pIC50 was 4.71 and the Specificity result was “max”. Also, the “RRE + rRNA IC50 (μM)” value in assay [2] is “inactive”.

As for `Oc1ccccc1C=NNc1nc(Nc2ccccc2)nc(N2CCCCC2)n1` [Compound 169], in assay [1], the pIC50 is 4.81 and the Specificity result is “max”. Also, the “RRE + rRNA IC50 (μM)” value in assay [2] is “inactive”.

As to `COc1cccc(C=NNc2nc(Nc3ccccc3)nc(N3CCCC3)n2)c1O` [Compound 170], in assay [1], the pIC50 is 5.21 and the Specificity is 119.3. The pIC50 in assay [2] is 3.13.

As to `CCN(CC)c1nc(NN=Cc2c(O)ccc3ccccc23)nc(Nc2ccccc2)n1` [Compound 171], in assay [1], the pIC50 was 5.03 and the Specificity entry was “max”. For the same compound, the “RRE + rRNA IC50 (μM)” value in assay [2] was “inactive”.

Take `Cc1cccc(C(=O)Oc2ccc(C=NNc3nc(N4CCCCC4)nc(N4CCCCC4)n3)cc2)c1` [Compound 181]: in assay [1], the negative-log IC50 (pIC50) was 4.22 and the Specificity entry is given as “max”. In addition, the “RRE + rRNA IC50 (μM)” value in assay [2] was “inactive”.

Take `CC(=NNc1nc(NCc2ccccc2)nc(Nc2ccccc2)n1)c1ccc([N+](=O)[O-])cc1` [Compound 182]: in assay [1], the pIC50 is 4.15 and the Specificity entry is recorded as “max”. Besides, the “RRE + rRNA IC50 (μM)” value in assay [2] is “inactive”.

Turning to `CC(=NNc1nc(Nc2ccccc2)nc(N2CCCC2)n1)c1ccc([N+](=O)[O-])cc1` [Compound 183], in assay [1], the pIC50 was 4.32 and the Specificity result was “max”. Also, the “RRE + rRNA IC50 (μM)” value in assay [2] was “inactive”.

As for `Cc1ccc(Nc2nc(NCc3ccccc3)nc(NN=Cc3ccc(F)cc3F)n2)cc1C` [Compound 191], in assay [1], the pIC50 is 4.06 and the Specificity entry is given as “max”. For the same compound, in assay [2], the “RRE + rRNA IC50 (μM)” value was “inactive”.

In the case of `CN(C)c1nc(NCc2ccccc2)nc(NCc2cccs2)n1` [Compound 192], in assay [1], the pIC50 was 3.63 and the Specificity entry is “max”. In assay [2], the “RRE + rRNA IC50 (μM)” value was “inactive”.

In the case of `COc1c(C=NNc2nc(N3CCCC3)nc(N3CCOCC3)n2)cccc1[N+](=O)[O-]` [Compound 193], in assay [1], the negative logarithm of the IC50 (pIC50) is 4.55 and the Specificity result is given as “max”. Moreover, the “RRE + rRNA IC50 (μM)” value in assay [2] was “inactive”.

Regarding `Cc1ccc(Nc2nc(NCc3ccccc3)nc(Nc3ccc([N+](=O)[O-])cc3)n2)cc1C` [Compound 194], in assay [1], the pIC50 was 4.47 and the Specificity entry was “max”. The “RRE + rRNA IC50 (μM)” value in assay [2] is “inactive”.

Consider `COc1ccccc1C=NNc1nc(NCc2ccccc2)nc(Nc2ccccc2)n1` [Compound 195], for which, in assay [1], the pIC50 is 4.55 and the Specificity entry is “max”. In addition, the “RRE + rRNA IC50 (μM)” value in assay [2] was “inactive”.

In the case of `Cc1ccc(Nc2nc(NN=Cc3ccc(Cl)cc3)nc(N3CCOCC3)n2)cc1Cl` [Compound 196], in assay [1], the pIC50 is 4.49 and the Specificity result is “max”. Besides, the “RRE + rRNA IC50 (μM)” value in assay [2] was “inactive”.

As to `COc1ccc(Nc2nc(NN=Cc3cc(Br)cc(Br)c3O)nc(N3CCOCC3)n2)cc1` [Compound 200], in assay [1], the pIC50 was 4.92 and the Specificity entry is “max”. Moreover, the “RRE + rRNA IC50 (μM)” value in assay [2] is “inactive”.

With `Fc1cccc(C=NNc2nc(Nc3ccccc3)nc(N3CCCC3)n2)c1` [Compound 201], in assay [1], the pIC50 is 4.28 and the Specificity result was “max”. In addition, in assay [2], the “RRE + rRNA IC50 (μM)” value is “inactive”.

Regarding `CCN(CC)c1nc(Nc2cccc(Br)c2)nc(Nc2cc(C)ccc2C)n1` [Compound 202], in assay [1], the pIC50 is 4.17 and the Specificity result is “max”. The “RRE + rRNA IC50 (μM)” value in assay [2] was “inactive”.

Consider `O=C(CSc1nc(SCC(=O)Nc2ccccc2C(F)(F)F)nc(SCC(=O)Nc2ccccc2C(F)(F)F)n1)Nc1ccccc1C(F)(F)F` [Compound 212], for which, in assay [1], the pIC50 is 4.64 and the Specificity entry was “max”. The “RRE + rRNA IC50 (μM)” value in assay [2] is “inactive”.

For orientation: pIC50 means the IC50 on a negative log10 scale, so that one unit is a factor of ten.
